Data on eight molecules can be found in PubChem BioAssay (NCI).

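Five compound concentrations were applied to cells in 96-well plates for 48 hours; endpoints were derived by simple linear interpolation of the resulting dose-response curve. TGI is the concentration that stops growth completely.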

Test systems include ACHN renal; LXFL 529 NSCLC; M14 melanoma; NCI-H460 lung; RPMI-8226 leukemia; RXF-631 renal; SR leukemia; TK-10 renal; XF 498 CNS; HOP-18 NSCLC; MCF7 breast; P388 leukemia; P388/ADR leukemia; SN12K1 renal; DU-145 prostate; HS 578T breast; MDA-MB-231 breast; MDA-N; PC-3 prostate; T-47D breast.
Holding throughout (test): NCI tumour cell line growth inhibition, 48 h

As to `CC(=O)C(C(=O)C(=O)Nc1cc(Cl)c(Cl)cc1Cl)c1csc(N)n1` (configuration not stated), the TGI in the test with ACHN renal, in the test on LXFL 529 NSCLC, with M14 melanoma, with NCI-H460 lung, in the test on RPMI-8226 leukemia and in the test on RXF-631 renal was greater than 100 µM in each case. Further, the TGI with SR leukemia, in the test with TK-10 renal and in the test on XF 498 CNS was greater than 100 µM each time.
For the molecule `CCCCCC1CC(C(C)=O)CN1c1ccc(F)cc1` (configuration not stated), the TGI in the test on ACHN renal was greater than 100 µM; with HOP-18 NSCLC it was 82.5 µM; in the test on LXFL 529 NSCLC it was greater than 100 µM; in the test with M14 melanoma it was greater than 100 µM; in the test with NCI-H460 lung, greater than 100 µM; in the test with SR leukemia, greater than 10 µM. The TGI in the test on TK-10 renal was greater than 100 µM; in the test with XF 498 CNS, 52.5 µM.
With `O=[N+]([O-])c1cc(C(F)(F)F)cc2c1SC1=Nc3ccccc3CN12`, the TGI in the test on HOP-18 NSCLC, in the test with MCF7 breast, in the test on NCI-H460 lung, in the test on P388 leukemia, with P388/ADR leukemia and with RPMI-8226 leukemia was greater than 100 µM throughout. Also, the TGI in the test on SN12K1 renal and in the test on XF 498 CNS was greater than 100 µM each time.
Regarding `NCCCC(N)(C(=O)O)C(F)F` (configuration not stated), the TGI with HOP-18 NSCLC was greater than 50 µM; in the test with MCF7 breast it was greater than 5000 µM; in the test on NCI-H460 lung, greater than 5000 µM; in the test on P388 leukemia, greater than 5000 µM; in the test on P388/ADR leukemia it was greater than 5000 µM; in the test with RPMI-8226 leukemia, greater than 5000 µM. The same molecule had a TGI with SN12K1 renal greater than 1580 µM.
Consider `O=C(N/N=C/c1cc(Cl)cc(Cl)c1[O-])c1ccccc1O.O=C(N/N=C/c1cc(Cl)cc(Cl)c1[O-])c1ccccc1O.[Cu+2]`, for which the TGI in the test on ACHN renal came to 1.57 µM; in the test with M14 melanoma it was 0.964 µM; in the test on SR leukemia, 0.511 µM; with TK-10 renal, 1.65 µM.
For `CCn1c(=O)c2c3ccc(O)cc3[nH]c2c2ccc(O)cc21`, the TGI in the test on ACHN renal, in the test with DU-145 prostate, with HS 578T breast, in the test with M14 melanoma, in the test on MCF7 breast and in the test with MDA-MB-231 breast was greater than 100 µM each time. Moreover, the TGI in the test on MDA-N, with PC-3 prostate, with SR leukemia, in the test on T-47D breast and in the test on TK-10 renal was greater than 100 µM each time.
As for `CCN(CC)CCCNC(=O)c1ccccc1Nc1c(Cl)cccc1Cl`, the TGI was 21.8 µM in the test with ACHN renal; 28.8 µM in the test with LXFL 529 NSCLC; 7.86 µM in the test on M14 melanoma; 20.5 µM with RPMI-8226 leukemia; 27.6 µM in the test with SR leukemia; 23.7 µM in the test on TK-10 renal. The TGI in the test with XF 498 CNS turned out to be 9.71 µM.
Take `CCC/C=C/C=C\C(=O)O[C@@H]1[C@@H](C)[C@]2(O)[C@@H]3C=C(C)C(=O)[C@H]3CC(COC(C)=O)=C[C@H]2[C@@H]2C(C)(C)[C@]12OC(C)=O`: the TGI in the test on HOP-18 NSCLC was found to be 109 µM; in the test on MCF7 breast, 83.1 µM; with NCI-H460 lung, 63.7 µM; in the test with P388 leukemia, 9.61 µM; in the test with P388/ADR leukemia it was 300 µM; in the test with RPMI-8226 leukemia, 95.8 µM. For the same molecule, the figures for the TGI in the test on SN12K1 renal and with XF 498 CNS were 48.8 µM and 16.7 µM, respectively.
